Test results as given in ChEMBL document CHEMBL1765018, “Inhibition of amyloid-β aggregation by coumarin analogs can be manipulated by functionalization of the aromatic center” (Bioorg Med Chem, 2011).
Activity calls are given as the source filed them. No cut-off for these calls is given here.

What was measured:
[1] = Inhibition of amyloid beta (1 to 40) monomer aggregation assessed as lag time extension by thioflavin T based fluorometric assay relative to control
[2] = Inhibition of amyloid beta (1 to 40) monomer aggregation assessed as reduction in plateau fluorescence by thioflavin T based fluorometric assay; set-up: concentration or dose not given beside the values
[3] = Inhibition of amyloid beta (1 to 40) monomer aggregation assessed as doubling in lag time by thioflavin T based fluorometric assay
[4] = Inhibition of amyloid beta (1 to 40) monomer aggregation at 100 uM by thioflavin T based fluorometric assay

Row | fold change (FC) [1] | inhibition ([2]; concentration not given here) [%] | SMILES | other results
1 | 2.1 |  | CCN(CC)c1ccc2c(C#N)c(N)c(=O)oc2c1 | 
2 | 1 | 87 | O=c1oc2ccccc2cc1-c1nn[nH]n1 | 
3 | 1 | 96 | CCN(CC)c1ccc2c(-c3nnn[nH]3)c(-c3nc4ccccc4s3)c(=O)oc2c1 | 
4 | 1.3 | 64 | CCN(CC)c1ccc2cc(-c3nc4ccccc4s3)c(=O)oc2c1 | 
5 | 1.8 |  | CCN(CC)c1ccc2c(C#N)c(C(C)=O)c(=O)oc2c1 | 
6 | 1 | 22 | N#Cc1cc2ccccc2oc1=O | 
7 | 1.7 |  | CCN(CC)c1ccc2cc([N+](=O)[O-])c(=O)oc2c1 | 

Further lines, the molecule ahead of its results:

Row | SMILES | fold change (FC) [1] | inhibition ([2]; concentration not given here) [%] | other results
8 | O=c1cc(-n2cc(-c3ccccc3)nn2)c2ccccc2o1 | 1.4 | 73 | 
9 | O=c1oc2ccccc2cc1-n1cc(-c2cccc3ccccc23)nn1 | 2 | 61 | Activity [3]: Active
10 | O=c1oc2ccccc2cc1-n1cc(-c2ccccc2)nn1 | 2.2 | 88 | 
11 | CCN(CC)c1ccc2c(C#N)c(-c3nc4ccccc4s3)c(=O)oc2c1 | 1.1 | 38 | 
12 | O=C(O)CCCC(=O)NCc1cn(-c2cc3ccccc3oc2=O)nn1 |  |  | Activity [1]: inactive; inhibition [2]: inactive
13 | O=c1cc(Cl)c2ccccc2o1 |  |  | Activity [1]: inactive; inhibition [2]: inactive; Activity [4]: inactive
